Results on 11 compounds are retold here after patent publication US20260241013A1, “TARGETED PROTEIN DEGRADATION USING PRODRUGS OF BIFUNCTIONAL COMPOUNDS THAT BIND UBIQUITIN LIGASE AND A TARGET MCL-1 PROTEIN” (Captor Therapeutics S.A., priority 2022, published 2026).

Each structure is given as a SMILES string. Where two headings read alike, the source gives them in different places. Some results are limits rather than exact numbers.

Assay type in all cases: cell-based
One series deals with T1, CRBN (Homo sapiens, UniProt Q96SW2).
T1 construct: host or cells: HEK293 (NanoLuc CRBN HEK293 cells)
The series can be described thus: NanoBRET In-cell CRBN Target Engagement Assay (live and lytic mode), NanoLuc CRBN HEK293 cells. The protocol:
Commercially available, NanoBRET In-cell CRBN Target Engagement Assay (NanoBRET CRBN TE Assay), which uses NanoLuc CRBN HEK293 cells and NanoBRET In-cell CRBN Tracer was used (N2910, N2912, PROMEGA) to determine the cell membrane permeability of prodrugs of MCL-1 degraders.
The assay was run in 96-well plate format (cat. 3600, Corning). NanoLuc CRBN HEK293 cells were treated with CRBN Tracer and compounds. Briefly, prepared was cell suspension (0.17×10^6cells/ml) in Opti-MEM without phenol red (Life Technologies). The cells were treated with CRBN Tracer (20× concentrated, 5 μl/well. For the live mode: 0.8 μM and for the lytic: 0.17 μM final concentration) or DMSO vehicle control (20× concentrated, 5 μl/well). Such prepared cells were seeded into the wells of 96-well plate on top of compounds (100× concentrated, 1 μl/well; 11-point 2-fold dilution) pre-plated on them with the help of Echo 555 acoustic dispenser (Labcyte). For the lytic mode assay, Digitonin (0.05 mg/ml, 10× concentrated, 10 μl/well) was added additionally. In the live mode assay, the plate was incubated at 37° C., 5% CO2 for 2 hours, and then at room temperature for 15 minutes to cool down. In the lytic mode assay, there was no incubation. The 3×Complete NanoBRET reagent (50 μl/well) was prepared according to the manufacturer's recommendations, appropriately for live and lytic mode. The plate was incubated for 2 minutes at room temperature and the luminescence and fluorescence readings followed using CLARIOstar Multimode Plate Reader (donor emission RLU—450 nm; acceptor emission RFU—610 nm). RBA value is an indicator of cell membrane permeability (the lower, the better) is calculated from absolute pIC50 (the negative log of the absolute IC50 value when converted to molar) of the live mode assay (pIC50 Live) and the lytic mode assay (pIC50 Lytic).

Series [1] is described as follows: Cell viability assay (CellTiter-Glo, CTG protocol), ARH-77. As to conditions: human, ARH-77 cells (lymphoblast-like), ARH-77 (MCL-1 independent line), 24 hours incubation, 1% FBS, read-out: Average pCC50 by molecule ARH-77 (converted). From the text:
(§1) The effect of various compounds of the invention on the viability of MV4-11 and ARH-77 cell lines was investigated, using the CTG protocol described below.
(§2) MV4-11 cell lines are derived from acute myeloid leukaemia and it is described in the literature as a MCL-1 dependent cell line, as opposed to lymphoblast-like ARH-77 cell line, which is described as independent of MCL-1 (Tron A E et al. Nat Commun. 2018; 9: 5341; Caenepeel S et al. Cancer Discov. 2018 December; 8(12): 1582-1597).
(§3) Cells (MV4-11 or ARH-77) were seeded on […] in a growth medium with 1% FBS. Next, compound stocks were pre-diluted in DMSO and added directly to the cell culture media (final DMSO concentration: 0.5%). Compound concentrations used in this assay: 1/3 dilutions starting at 30 μM (9 to 12 points). After 24 hours of incubation, cell viability was evaluated using CellTiter-Gob® Luminescent Cell Viability Assay (Promega, cat #G7572). The luminescence signal was measured using a CLARIOstar Plus Multi-Mode Microplate Reader (574-590 nm).
(§4) Results were normalized to DMSO control. Collected data were analyzed using GraphPad Prism to calculate pCC50 values (i.e. the negative log of the CC50 value). CC50 (50% cytotoxic concentration) is the effective concentration of a cytotoxic compound, which produces 50% of the maximum possible cell death (i.e. the concentration of the compound which is required in order to reduce cell viability by 50%). CC50 is often used rather than IC50 in cell toxicity assays.

The next series deals with MV4-11 cells. The experiment in a line: Cell viability assay (CellTiter-Glo, CTG protocol), MV4-11. The following applies: Homo sapiens, MV4-11 (MCL-1 dependent AML line), 24 hours incubation, 1% FBS, read-out: Average pCC50 by molecule MV4-11 (converted).
Source text: as §1, §2, §3, §4

Setting [2] is: live mode, intact cells, 2 hours at 37° C., read-out: pIC50 (live) (converted).
The mark [3] stands for this setting: lytic mode, digitonin-lysed cells, no incubation, read-out: pIC50 (lytic) (converted).

T1 sequence (Q96SW2 whole entry): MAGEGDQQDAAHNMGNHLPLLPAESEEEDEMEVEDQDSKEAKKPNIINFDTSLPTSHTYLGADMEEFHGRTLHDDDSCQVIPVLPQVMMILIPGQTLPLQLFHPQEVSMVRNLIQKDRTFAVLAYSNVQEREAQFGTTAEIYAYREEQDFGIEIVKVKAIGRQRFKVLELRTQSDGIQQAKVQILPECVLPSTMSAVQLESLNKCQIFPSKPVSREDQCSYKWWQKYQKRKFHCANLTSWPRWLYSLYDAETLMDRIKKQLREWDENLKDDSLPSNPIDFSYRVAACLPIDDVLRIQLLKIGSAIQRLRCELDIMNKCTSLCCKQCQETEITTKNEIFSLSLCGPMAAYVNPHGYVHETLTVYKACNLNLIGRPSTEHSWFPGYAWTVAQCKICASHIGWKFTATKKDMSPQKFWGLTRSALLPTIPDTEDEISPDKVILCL

Take `Cc1nn(C)c(C)c1-c1c(Cl)ccc2c(CCCOc3cccc4cc(F)ccc34)c(C(=O)OCOC(=O)CCO)n(CCN3CCN(C(=O)COc4cccc5c4CN(C4CCC(=O)NC4=O)C5=O)CC3)c12` (centres unmarked) [Compound 43]: the IC50 at CRBN (setting [2]) was 39.8 nM; at CRBN (setting [3]), 79.4 nM. Also, the CC50 at 24 h in series [1] is over 3.16 µM. In addition, in the series with MV4-11 cells, the CC50 is under 3.16 nM.
In the case of `Cc1nn(C)c(C)c1-c1c(Cl)ccc2c(CCCOc3cccc4cc(F)ccc34)c(C(=O)OCOC(=O)C3CCNCC3)n(CCN3CCN(C(=O)COc4cccc5c4CN(C4CCC(=O)NC4=O)C5=O)CC3)c12` (centres unmarked) [Compound 55, ((Piperidine-4-carbonyl)oxy)methyl 6-chloro-1-(2-(4-(2-((2-(2,6-dioxopiperidin-3-yl)-1-oxoisoindolin-4-yl)oxy)acetyl)piperazin-1-yl)ethyl)-3-(3-((6-fluoronaphthalen-1-yl)oxy)propyl)-7-(1,3,5-trimethyl-1H-pyrazol-4-yl)-1H-indole-2-carboxylate], the CC50 at 24 h in series [1] was over 10 µM. Moreover, the CC50 in the series on MV4-11 cells was under 100 nM.
The corresponding values for `COCCOCC(=O)OCOC(=O)c1c(CCCOc2cccc3cc(F)ccc23)c2ccc(Cl)c(-c3c(C)nn(C)c3C)c2n1CCN1CCN(C(=O)COc2cccc3c2CN(C2CCC(=O)NC2=O)C3=O)CC1` (centres unmarked) [Compound 57, (2-(2-Methoxyethoxy)acetoxy)methyl 6-chloro-1-(2-(4-(2-((2-(2,6-dioxopiperidin-3-yl)-1-oxoisoindolin-4-yl)oxy)acetyl)piperazin-1-yl)ethyl)-3-(3-((6-fluoronaphthalen-1-yl)oxy)propyl)-7-(1,3,5-trimethyl-1H-pyrazol-4-yl)-1H-indole-2-carboxylate] are over 10 µM and under 10 nM.
As for `Cc1nn(C)c(C)c1-c1c(Cl)ccc2c(CCCOc3cccc4cc(F)ccc34)c(C(=O)OCOC(=O)C(C)(C)C)n(CCN3CCN(C(=O)Cn4c(C)nc5c(C(=O)NC6CCC(=O)NC6=O)cccc54)CC3)c12` (centres unmarked) [Compound 70, (6-Chloro-1-{2-[4-(2-{4-[(2,6-dioxopiperidin-3-yl)carbamoyl]-2-methyl-1H-1,3-benzodiazol-1-yl}acetyl)piperazin-1-yl]ethyl}-3-{3-[(6-fluoronaphthalen-1-yl)oxy]propyl}-7-(1,3,5-trimethyl-1H-pyrazol-4-yl)-1H-indole-2-carbonyloxy)methyl 2,2-dimethylpropanoate], the IC50 on CRBN (setting [2]) is 25.1 nM; at CRBN (setting [3]), 7940 nM. The CC50 at 24 h in series [1] was over 31.6 µM. Besides, the CC50 in the series on MV4-11 cells was under 10 nM.
In the case of `Cc1nn(C)c(C)c1-c1c(Cl)ccc2c(CCCOc3cccc4cc(F)ccc34)c(C(=O)OCOC(=O)C(C)(C)C)n(CCN3CCC(CN4CCN(c5ccc6c(c5)CN([C@H]5CCC(=O)NC5=O)C6=O)CC4)CC3)c12` [Compound 71, (Pivaloyloxy)methyl (S)-6-chloro-1-(2-(4-((4-(2-(2,6-dioxopiperidin-3-yl)-1-oxoisoindolin-5-yl)piperazin-1-yl)methyl)piperidin-1-yl)ethyl)-3-(3-((6-fluoronaphthalen-1-yl)oxy)propyl)-7-(1,3,5-trimethyl-1H-pyrazol-4-yl)-1H-indole-2-carboxylate], the CC50 at 24 h in series [1] was over 10 µM. For the same compound, in the series with MV4-11 cells, the CC50 was under 100 nM.
With `CC(=O)OC(C)OC(=O)c1c(CCCOc2cccc3cc(F)ccc23)c2ccc(Cl)c(-c3c(C)nn(C)c3C)c2n1CCN1CCN(C(=O)COc2cccc3c2CN(C2CCC(=O)NC2=O)C3=O)CC1` (centres unmarked) [Compound 75, 1-Acetoxyethyl 6-chloro-1-(2-(4-(2-((2-(2,6-dioxopiperidin-3-yl)-1-oxoisoindolin-4-yl)oxy)acetyl)piperazin-1-yl)ethyl)-3-(3-((6-fluoronaphthalen-1-yl)oxy)propyl)-7-(1,3,5-trimethyl-1H-pyrazol-4-yl)-1H-indole-2-carboxylate], the CC50 at 24 h in series [1] is over 31.6 µM. In addition, the CC50 in the series with MV4-11 cells is under 10 nM.
Turning to `Cc1nn(C)c(C)c1-c1c(Cl)ccc2c(CCCOc3cccc4cc(F)ccc34)c(C(=O)OC(C)OC(=O)OC(C)C)n(CCN3CCN(C(=O)COc4cccc5c4CN(C4CCC(=O)NC4=O)C5=O)CC3)c12` (centres unmarked) [Compound 99, 1-{[(Propan-2-yloxy)carbonyl]oxy}ethyl 6-chloro-1-{2-[4-(2-{[2-(2,6-dioxopiperidin-3-yl)-1-oxo-2,3-dihydro-1H-isoindol-4-yl]oxy}acetyl)piperazin-1-yl]ethyl}-3-{3-[(6-fluoronaphthalen-1-yl)oxy]propyl}-7-(1,3,5-trimethyl-1H-pyrazol-4-yl)-1H-indole-2-carboxylate], the CC50 at 24 h in series [1] was over 31.6 µM. Further, the CC50 in the series on MV4-11 cells is under 31.6 nM.
Take `Cc1nn(C)c(C)c1-c1c(Cl)ccc2c(CCCOc3cccc4cc(F)ccc34)c(C(=O)OC(C)OC(=O)OC3CCCCC3)n(CCN3CCN(C(=O)COc4cccc5c4CN(C4CCC(=O)NC4=O)C5=O)CC3)c12` (centres unmarked) [Compound 100, 1-(((Cyclohexyloxy)carbonyl)oxy)ethyl 6-chloro-1-(2-(4-(2-((2-(2,6-dioxopiperidin-3-yl)-1-oxoisoindolin-4-yl)oxy)acetyl)piperazin-1-yl)ethyl)-3-(3-((6-fluoronaphthalen-1-yl)oxy)propyl)-7-(1,3,5-trimethyl-1H-pyrazol-4-yl)-1H-indole-2-carboxylate]: the CC50 at 24 h in series [1] was over 31.6 µM. The CC50 with MV4-11 cells is under 31.6 nM.
On to `Cc1nn(C)c(C)c1-c1c(Cl)ccc2c(CCCOc3cccc4cc(F)ccc34)c(C(=O)OCCS(C)(=O)=O)n(CCN3CCN(C(=O)COc4cccc5c4CN(C4CCC(=O)NC4=O)C5=O)CC3)c12` (centres unmarked) [Compound 124, 2-(Methylsulfonyl)ethyl 6-chloro-1-(2-(4-(2-((2-(2,6-dioxopiperidin-3-yl)-1-oxoisoindolin-4-yl)oxy)acetyl)piperazin-1-yl)ethyl)-3-(3-((6-fluoronaphthalen-1-yl)oxy)propyl)-7-(1,3,5-trimethyl-1H-pyrazol-4-yl)-1H-indole-2-carboxylate], for which the CC50 at 24 h in series [1] was over 31.6 µM. In addition, the CC50 in the series on MV4-11 cells was under 1000 nM.
Turning to `Cc1nn(C)c(C)c1-c1c(Cl)ccc2c(CCCOc3cccc4cc(F)ccc34)c(C(=O)OCCN3CCOCC3)n(CCN3CCN(C(=O)COc4cccc5c4CN(C4CCC(=O)NC4=O)C5=O)CC3)c12` (centres unmarked) [Compound 129, 2-Morpholinoethyl 6-chloro-1-(2-(4-(2-((2-(2,6-dioxopiperidin-3-yl)-1-oxoisoindolin-4-yl)oxy)acetyl)piperazin-1-yl)ethyl)-3-(3-((6-fluoronaphthalen-1-yl)oxy)propyl)-7-(1,3,5-trimethyl-1H-pyrazol-4-yl)-1H-indole-2-carboxylate], the IC50 at CRBN (setting [2]) is 316 nM; on CRBN (setting [3]), 355 nM.
With `Cc1nn(C)c(C)c1-c1c(Cl)ccc2c(CCCOc3cccc4cc(F)ccc34)c(C(=O)OCCN3CCN(C)CC3)n(CCN3CCN(C(=O)COc4cccc5c4CN(C4CCC(=O)NC4=O)C5=O)CC3)c12` (centres unmarked) [Compound 133, 2-(4-Methylpiperazin-1-yl)ethyl 6-chloro-1-(2-(4-(2-((2-(2,6-dioxopiperidin-3-yl)-1-oxoisoindolin-4-yl)oxy)acetyl)piperazin-1-yl)ethyl)-3-(3-((6-fluoronaphthalen-1-yl)oxy)propyl)-7-(1,3,5-trimethyl-1H-pyrazol-4-yl)-1H-indole-2-carboxylate], the IC50 at CRBN (setting [2]) was 398 nM; on CRBN (setting [3]), 251 nM.
